What all share (type): biochemical
One assay has as its target T1, Human Calpain 1/NS1 (Homo sapiens, UniProt P07384).
T1 sequence (P07384 1-714): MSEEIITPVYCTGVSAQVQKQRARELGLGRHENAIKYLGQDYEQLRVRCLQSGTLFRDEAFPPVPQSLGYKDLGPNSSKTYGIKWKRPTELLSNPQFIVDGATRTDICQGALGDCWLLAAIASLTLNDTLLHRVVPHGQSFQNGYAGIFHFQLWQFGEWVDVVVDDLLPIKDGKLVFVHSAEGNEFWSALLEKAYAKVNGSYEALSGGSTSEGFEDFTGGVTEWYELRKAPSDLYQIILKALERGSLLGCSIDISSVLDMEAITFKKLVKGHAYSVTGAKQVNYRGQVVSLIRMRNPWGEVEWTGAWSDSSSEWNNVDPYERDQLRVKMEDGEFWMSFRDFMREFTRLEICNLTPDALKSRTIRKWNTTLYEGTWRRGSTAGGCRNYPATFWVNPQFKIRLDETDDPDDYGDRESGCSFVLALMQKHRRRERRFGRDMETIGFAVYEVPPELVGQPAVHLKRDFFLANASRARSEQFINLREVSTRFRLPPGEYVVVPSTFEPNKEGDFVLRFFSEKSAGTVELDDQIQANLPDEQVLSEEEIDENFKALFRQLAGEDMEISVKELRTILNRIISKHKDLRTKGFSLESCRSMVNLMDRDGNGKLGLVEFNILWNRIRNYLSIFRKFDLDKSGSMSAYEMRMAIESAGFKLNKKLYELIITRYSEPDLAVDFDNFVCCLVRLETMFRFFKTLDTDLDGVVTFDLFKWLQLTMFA
T1 sequence (P04632 1-268 partner): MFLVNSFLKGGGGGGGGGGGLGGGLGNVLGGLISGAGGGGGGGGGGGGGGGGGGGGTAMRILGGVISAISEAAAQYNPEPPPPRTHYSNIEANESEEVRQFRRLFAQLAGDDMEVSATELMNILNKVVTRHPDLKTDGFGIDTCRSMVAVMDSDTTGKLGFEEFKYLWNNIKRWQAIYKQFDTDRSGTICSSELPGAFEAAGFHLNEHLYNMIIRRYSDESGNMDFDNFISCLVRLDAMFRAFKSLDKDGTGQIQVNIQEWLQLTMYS
The experiment in a line: Calpain inhibition continuous fluorescence (FRET) assay, Human Calpain 1/NS1. As to conditions: Column A; read-out: Human Calpain 1/NS1 IC50. The procedure: (§1) Calpain 1, 2, and 9 activity and inhibition thereof was assessed by means of a continuous fluorescence assay. The SensoLyte 520 Calpain substrate (Anaspec Inc) was optimized for detecting calpain activity. This substrate contains an internally quenched 5-FAM/QXL™ 520 FRET pair. Calpains 1, 2, and 9 cleave the FRET substrate into two separate fragments resulting in an increase of 5-FAM fluorescence that is proportional to calpain activity
(§2) Assays were typically setup in black 384-well plates using automated liquid handling as follows. Calpain assay base buffer typically contains 50 mM Tris, pH 7.5, 100 mM NaCl and 1 mM DTT. Inhibitors were serially diluted in DMSO and used to setup 2× mixtures with calpains in the aforementioned buffer. After incubation at ambient temperature (25C), the reaction was initiated by adding a 2× mix of the fluorescent peptide substrate and CaCl2) (required for in-situ calpain activation) in the same buffer. Reaction progress curve data were typically collected for 10 min using excitation/emission wavelengths of 490 nm/520 nm on SpectraMax i3× or the FLIPR-Tetra plate readers (Molecular Devices Inc). Reaction rates were calculated from progress curve slopes typically over 1-5 min. Dose response curves (rate vs. log inhibitor concentration) were typically fit to a 4-parameter logistic function to extract IC50 values.

The target in the next assay is T2, Human Calpain 9/NS1 (Homo sapiens, UniProt O14815).
T2 sequence (O14815 1-690): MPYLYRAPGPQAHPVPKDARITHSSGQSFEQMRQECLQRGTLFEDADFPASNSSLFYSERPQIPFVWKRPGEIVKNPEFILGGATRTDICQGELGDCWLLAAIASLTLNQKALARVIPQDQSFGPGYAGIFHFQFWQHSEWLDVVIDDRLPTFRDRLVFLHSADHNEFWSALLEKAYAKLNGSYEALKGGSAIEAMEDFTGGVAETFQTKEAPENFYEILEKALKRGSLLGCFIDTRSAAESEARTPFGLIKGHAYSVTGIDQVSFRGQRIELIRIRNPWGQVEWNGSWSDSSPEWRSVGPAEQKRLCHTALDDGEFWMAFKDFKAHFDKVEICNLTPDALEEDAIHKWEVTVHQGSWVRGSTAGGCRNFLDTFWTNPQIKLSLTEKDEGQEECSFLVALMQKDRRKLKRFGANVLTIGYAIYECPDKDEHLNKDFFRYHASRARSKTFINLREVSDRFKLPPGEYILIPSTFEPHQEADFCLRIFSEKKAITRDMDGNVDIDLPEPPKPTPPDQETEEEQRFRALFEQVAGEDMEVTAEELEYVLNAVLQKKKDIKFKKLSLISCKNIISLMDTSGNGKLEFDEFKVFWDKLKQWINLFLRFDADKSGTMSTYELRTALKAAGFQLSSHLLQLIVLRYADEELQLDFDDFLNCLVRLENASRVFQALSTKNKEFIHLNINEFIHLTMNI
T2 sequence (P04632 1-268 partner): T1 sequence (P04632 1-268 partner)
The experiment in a line: Calpain inhibition continuous fluorescence (FRET) assay, Human Calpain 9/NS1. As to conditions: Column C; read-out: Human Calpain 9/NS1 IC50. As to the method: as §1, §2

The target of a further assay is T3, Human Calpain 2/NS1 (Homo sapiens, UniProt P17655).
T3 sequence (P17655 1-700): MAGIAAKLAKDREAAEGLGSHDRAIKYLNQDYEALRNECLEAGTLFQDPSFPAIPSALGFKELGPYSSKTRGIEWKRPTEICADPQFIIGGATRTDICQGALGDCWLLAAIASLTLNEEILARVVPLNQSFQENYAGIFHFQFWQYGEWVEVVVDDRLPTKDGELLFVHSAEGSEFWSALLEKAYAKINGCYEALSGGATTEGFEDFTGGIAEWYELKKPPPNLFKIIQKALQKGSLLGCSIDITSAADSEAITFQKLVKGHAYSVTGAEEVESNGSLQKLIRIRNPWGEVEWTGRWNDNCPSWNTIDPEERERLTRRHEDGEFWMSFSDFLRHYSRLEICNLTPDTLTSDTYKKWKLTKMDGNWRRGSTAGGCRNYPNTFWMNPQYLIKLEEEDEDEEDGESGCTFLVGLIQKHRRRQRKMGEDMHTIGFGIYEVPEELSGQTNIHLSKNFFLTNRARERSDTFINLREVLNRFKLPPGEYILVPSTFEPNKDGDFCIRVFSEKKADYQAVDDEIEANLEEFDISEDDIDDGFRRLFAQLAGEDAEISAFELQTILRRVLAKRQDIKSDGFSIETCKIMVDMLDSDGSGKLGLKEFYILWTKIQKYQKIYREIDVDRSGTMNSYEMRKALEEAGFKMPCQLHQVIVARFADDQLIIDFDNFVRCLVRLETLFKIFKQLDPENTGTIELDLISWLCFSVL
T3 sequence (P04632 1-268 partner): T1 sequence (P04632 1-268 partner)
The experiment in a line: Calpain inhibition continuous fluorescence (FRET) assay, Human Calpain 2/NS1. As to conditions: Column B; read-out: Human Calpain 2/NS1 IC50. As to the method: as §1, §2

This is an account of results in patent US11339130B1 (Blade Therapeutics, Inc., priority 2016, dated 2022).

pIC50: −log10 of the molar value.

`NC(=O)C(=O)[C@H](Cc1ccccc1)NC(=O)c1scnc1-n1cc2ccccc2n1` [Compound 37, (S)—N-(4-amino-3,4-dioxo-1-phenylbutan-2-yl)-4-(2H-indazol-2-yl)thiazole-5-carboxamide]: the pIC50 on Human Calpain 1/NS1, on Human Calpain 9/NS1 and at Human Calpain 2/NS1 was above 5.52 in each case.

On to `Cc1cc(C(=O)N[C@@H](Cc2ccccc2)C(=O)C(N)=O)n(-c2cccc3ccccc23)n1` [Compound 38, (S)—N-(4-amino-3,4-dioxo-1-phenylbutan-2-yl)-3-methyl-1-(naphthalen-1-yl)-1H-pyrazole-5-carboxamide], for which the pIC50 at Human Calpain 1/NS1, on Human Calpain 9/NS1 and at Human Calpain 2/NS1 was above 5.52 in each case.

In the case of `NC(=O)C(=O)[C@H](Cc1ccccc1)NC(=O)c1scnc1-n1cc(-c2ccccc2)cn1` [Compound 39, (S)—N-(4-amino-3,4-dioxo-1-phenylbutan-2-yl)-4-(4-phenyl-1H-pyrazol-1-yl)thiazole-5-carboxamide], the pIC50 at Human Calpain 1/NS1, at Human Calpain 9/NS1 and at Human Calpain 2/NS1 was above 5.52 each time.

Regarding `NC(=O)C(=O)[C@H](Cc1ccccc1)NC(=O)c1scnc1-n1ncc2ccccc21` [Compound 40, (S)—N-(4-amino-3,4-dioxo-1-phenylbutan-2-yl)-4-(1H-indazol-1-yl)thiazole-5-carboxamide], the pIC50 on Human Calpain 1/NS1, on Human Calpain 9/NS1 and at Human Calpain 2/NS1 was above 5.52 each time.

Turning to `O=C(NC1CC1)C(=O)[C@H](Cc1ccccc1)NC(=O)c1cncn1-c1ccccn1` [Compound 41, (S)—N-(4-(cyclopropylamino)-3,4-dioxo-1-phenylbutan-2-yl)-1-(pyridin-2-yl)-1H-imidazole-5-carboxamide], the pIC50 on Human Calpain 1/NS1 was 5.00 to 5.52; at Human Calpain 9/NS1, 5.00 to 5.52; on Human Calpain 2/NS1, above 5.52.

As for `O=C(NC1CC1)C(=O)[C@H](Cc1ccccc1)NC(=O)c1cncn1-c1ccn(-c2ccccc2)n1` [Compound 42, (S)—N-(4-(cyclopropylamino)-3,4-dioxo-1-phenylbutan-2-yl)-1-(1-phenyl-1H-pyrazol-3-yl)-1H-imidazole-5-carboxamide], the pIC50 was above 5.52 at Human Calpain 1/NS1, below 5.00 at Human Calpain 9/NS1 and above 5.52 on Human Calpain 2/NS1.

`O=C(NC1CC1)C(=O)[C@H](Cc1ccccc1)NC(=O)c1cncn1-c1nc2ccccc2s1` [Compound 43, (S)-1-(benzo[d]thiazol-2-yl)-N-(4-(cyclopropylamino)-3,4-dioxo-1-phenylbutan-2-yl)-1H-imidazole-5-carboxamide]: the pIC50 on Human Calpain 1/NS1, on Human Calpain 9/NS1 and on Human Calpain 2/NS1 was above 5.52 in each case.

As for `COc1ccc(C[C@H](NC(=O)c2c(C)noc2-c2ccccc2)C(=O)C(N)=O)cc1` [Compound 46, (S)—N-(4-amino-1-(4-methoxyphenyl)-3,4-dioxobutan-2-yl)-3-methyl-5-phenylisoxazole-4-carboxamide], the pIC50 at Human Calpain 1/NS1, on Human Calpain 9/NS1 and on Human Calpain 2/NS1 was above 5.52 throughout.

Regarding `CC[C@H](NC(=O)c1c(C)noc1-c1ccccc1)C(=O)C(N)=O` [Compound 47], the pIC50 at Human Calpain 1/NS1, at Human Calpain 9/NS1 and on Human Calpain 2/NS1 was above 5.52 throughout.

Take `NC(=O)C(=O)[C@H](Cc1ccccc1)NC(=O)c1[nH]cnc1-c1ccccc1` [Compound 48, (S)—N-(4-amino-3,4-dioxo-1-phenylbutan-2-yl)-4-phenyl-1H-imidazole-5-carboxamide]: the pIC50 on Human Calpain 1/NS1, on Human Calpain 9/NS1 and on Human Calpain 2/NS1 was 5.00 to 5.52 each time.

With `O=C(NC1CC1)C(=O)[C@H](Cc1ccccc1)NC(=O)c1cncn1-c1n[nH]c2ccccc12` [Compound 51, (S)—N-(4-(cyclopropylamino)-3,4-dioxo-1-phenylbutan-2-yl)-1-(1H-indazol-3-yl)-1H-imidazole-5-carboxamide], the pIC50 at Human Calpain 1/NS1 was 5.00 to 5.52; at Human Calpain 9/NS1, below 5.00; at Human Calpain 2/NS1, 5.00 to 5.52.

Consider `NC(=O)C(=O)[C@H](Cc1ccccc1)NC(=O)c1cncn1-c1ncc(-c2ccccc2)s1` [Compound 52, (S)—N-(4-amino-3,4-dioxo-1-phenylbutan-2-yl)-1-(5-phenylthiazol-2-yl)-1H-imidazole-5-carboxamide], for which the pIC50 on Human Calpain 1/NS1, at Human Calpain 9/NS1 and on Human Calpain 2/NS1 was above 5.52 each time.

Take `O=C(NC1CC1)C(=O)[C@H](Cc1ccccc1)NC(=O)c1cncn1-c1ncc(-c2ccccc2)s1` [Compound 53, (S)—N-(4-(cyclopropylamino)-3,4-dioxo-1-phenylbutan-2-yl)-1-(5-phenylthiazol-2-yl)-1H-imidazole-5-carboxamide]: the pIC50 at Human Calpain 1/NS1 is above 5.52; on Human Calpain 9/NS1, 5.00 to 5.52; on Human Calpain 2/NS1, above 5.52.

For the compound `Cc1nc(C(=O)N[C@@H](Cc2ccccc2)C(=O)C(N)=O)c(-c2ccccc2)s1` [Compound 54, (S)—N-(4-amino-3,4-dioxo-1-phenylbutan-2-yl)-2-methyl-5-phenylthiazole-4-carboxamide], the pIC50 at Human Calpain 1/NS1, at Human Calpain 9/NS1 and at Human Calpain 2/NS1 was above 5.52 each time.

For `Cc1noc(-c2ccccc2)c1C(=O)N[C@@H](CC(C)(C)C)C(=O)C(N)=O` [Compound 56], the pIC50 at Human Calpain 1/NS1, on Human Calpain 9/NS1 and at Human Calpain 2/NS1 was above 5.52 each time.

As for `O=C(NC1CC1)C(=O)[C@H](Cc1ccccc1)NC(=O)c1scnc1-c1ccccn1` [Compound 61], the pIC50 on Human Calpain 1/NS1, at Human Calpain 9/NS1 and on Human Calpain 2/NS1 was above 5.52 throughout.
